Data from patent US20060063759A1, “Tricyclic steroid hormone nuclear receptor modulators” (priority 2002, published 2006).

biological target: T1, human MR (Homo sapiens, UniProt P08235); experiment: Mineralocorticoid Receptor Binding Assay ([3H]-aldosterone); settings: [3H]-aldosterone binding, human MR expressed in Sf9 cells; read-out: MR Ki
T1 construct: The full length human MR gene is cloned from a human kidney or human brain cDNA library; His tag from the pAcHLT vector (own knowledge); made in house; host or cells: Sf9 insect cells (baculovirus, pAcHLT transfer vector)
T1 sequence (P08235 1-984): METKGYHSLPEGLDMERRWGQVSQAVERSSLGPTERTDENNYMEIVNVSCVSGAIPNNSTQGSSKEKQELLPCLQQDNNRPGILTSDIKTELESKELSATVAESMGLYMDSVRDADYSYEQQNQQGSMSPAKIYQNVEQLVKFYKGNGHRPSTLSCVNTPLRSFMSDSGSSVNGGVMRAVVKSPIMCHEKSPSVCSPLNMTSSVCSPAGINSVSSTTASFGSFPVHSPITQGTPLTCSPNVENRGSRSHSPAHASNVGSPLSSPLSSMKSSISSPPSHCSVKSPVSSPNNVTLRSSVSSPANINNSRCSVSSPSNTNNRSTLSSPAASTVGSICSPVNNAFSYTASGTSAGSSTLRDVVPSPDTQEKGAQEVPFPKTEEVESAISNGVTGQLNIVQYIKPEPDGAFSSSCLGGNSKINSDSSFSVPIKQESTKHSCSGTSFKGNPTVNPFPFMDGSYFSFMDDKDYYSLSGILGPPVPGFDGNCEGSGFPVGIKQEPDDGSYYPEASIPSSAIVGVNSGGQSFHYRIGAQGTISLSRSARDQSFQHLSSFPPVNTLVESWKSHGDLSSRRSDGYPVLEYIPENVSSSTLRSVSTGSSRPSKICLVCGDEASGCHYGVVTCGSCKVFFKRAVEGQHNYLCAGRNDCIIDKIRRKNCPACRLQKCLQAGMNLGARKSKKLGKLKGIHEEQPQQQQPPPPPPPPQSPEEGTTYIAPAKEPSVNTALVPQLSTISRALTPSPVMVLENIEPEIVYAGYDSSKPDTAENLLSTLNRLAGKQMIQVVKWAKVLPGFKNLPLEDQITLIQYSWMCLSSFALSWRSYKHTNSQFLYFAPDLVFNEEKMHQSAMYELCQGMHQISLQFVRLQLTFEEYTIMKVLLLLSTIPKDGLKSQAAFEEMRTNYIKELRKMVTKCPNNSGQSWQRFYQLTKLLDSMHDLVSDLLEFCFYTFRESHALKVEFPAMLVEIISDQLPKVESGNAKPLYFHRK
How it was run: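 Lysate supernatant of Sf9 cells expressing full-length human MR (20-25 μg protein) was incubated with 0.5 nM [3H]-aldosterone and test compound in molybdate/Tris/phosphate/glycerol buffer, pH 7.5, ~16 h at 4 °C. Bound ligand was filtered and counted by scintillation; IC50 is the concentration halving [3H]-aldosterone binding.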

Row | Ki | SMILES
1 | < 500 nM | C/C(=C1/c2ccccc2COc2cc(F)ccc21)c1ccc2[nH]c(=O)[nH]c2c1 [Example 838]
2 | < 500 nM | C/C(=C1\c2ccccc2COc2cc(F)ccc21)c1ccc2[nH]c(=O)[nH]c2c1 [Example 839]
3 | < 500 nM | COc1ccc2c(c1)CSc1ccccc1C2=C(C)c1cccc(NS(C)(=O)=O)c1 [Example 840]
4 | < 500 nM | COc1ccc2c(c1)CSc1ccccc1/C2=C(/C)c1cccc(NS(C)(=O)=O)c1 [Example 841]
5 | < 500 nM | COc1ccc2c(c1)CSc1ccccc1/C2=C(\C)c1cccc(NS(C)(=O)=O)c1 [Example 842]

tested on: not given; experiment: not given; settings: not given

Row | SMILES | melting point
6 | O=S(=O)(c1ccccc1C=C1c2ccccc2CCc2ccccc21)N1CCOCC1 [Example 8, 4-[2-(10,11-Dihydro-dibenzo[a,d]cyclohepten-5-ylidenemethyl)-benzenesulfonyl]-morpholine] | 139.3 °C
7 | Cc1cc(S(=O)(=O)N(C)C)c(C=C2c3ccccc3CCc3ccccc32)cc1Cl [Example 10, 4-Chloro-2-(10,11-dihydro-dibenzo[a,d]cyclohepten-5-ylidenemethyl)-5,N,N-trimethylbenzenesulfonamide] | 199.9 °C
8 | Cc1cc(S(=O)(=O)N2CCOCC2)c(C=C2c3ccccc3CCc3ccccc32)cc1Cl [Example 12, 4-[4-Chloro-2-(10,11-dihydro-dibenzo[a,d]cyclohepten-5-ylidenemethyl)-5-methyl-benzenesulfonyl]-morpholine] | 194.7 °C
9 | Cc1ccc(C=C2c3ccccc3CCc3ccccc32)c(S(=O)(=O)Nc2ccccc2)c1 [Example 13] | 220.4 °C
10 | Cc1ccc(C=C2c3ccccc3CCc3ccccc32)c(S(=O)(=O)NC2CC2)c1 [Example 14, N-Cyclopropyl-2-(10,11-dihydro-dibenzo[a,d]cyclohepten-5-ylidenemethyl)-5-methyl-benzenesulfonamide] | 160.8 °C
11 | Cc1ccc(C=C2c3ccccc3CCc3ccccc32)c(S(=O)(=O)NCc2ccccc2)c1 [Example 15, N-Benzyl-2-(10,11-dihydro-dibenzo[a,d]cyclohepten-5-ylidenemethyl)-5-methyl-benzenesulfonamide] | 138.3 °C
12 | CCNS(=O)(=O)c1cc(C)ccc1C=C1c2ccccc2CCc2ccccc21 [Example 17, 2-(10,11-Dihydro-dibenzo[a,d]cyclohepten-5-ylidenemethyl)-N-ethyl-5-methyl-benzenesulfonamide] | 172.4 °C
13 | Cc1ccc(C=C2c3ccccc3CCc3ccccc32)c(S(=O)(=O)N(C)C)c1 [Example 19, 2-(10,11-Dihydro-dibenzo[a,d]cyclohepten-5-ylidenemethyl)-5,N,N-trimethyl-benzenesulfonamide] | 186.6 °C
14 | CCCNS(=O)(=O)c1cc(C)ccc1C=C1c2ccccc2CCc2ccccc21 [Example 20, 2-(10,11-Dihydro-dibenzo[a,d]cyclohepten-5-ylidenemethyl)-5-methyl-N-propyl-benzenesulfonamide] | 149.8 °C
15 | Cc1ccc(C=C2c3ccccc3CCc3ccccc32)c(S(=O)(=O)N2CCOCC2)c1 [Example 22, 4-[2-(10,11-Dihydro-dibenzo[a,d]cyclohepten-5-ylidenemethyl)-5-methyl-benzenesulfonyl]-morpholine] | 157.2 °C
16 | Cc1ccc(C=C2c3ccccc3CCc3ccccc32)c(S(=O)(=O)NCC(F)(F)F)c1 [Example 23, 2-(10,11-Dihydro-dibenzo[a,d]cyclohepten-5-ylidenemethyl)-5-methyl-N-(2,2,2-trifluoro-ethyl)-benzenesulfonamide] | 100.7 °C
17 | NS(=O)(=O)c1cccc(C=C2c3ccccc3CCc3ccccc32)c1 [Example 24, 3-(10,11-Dihydro-dibenzo[a,d]cyclohepten-5-ylidenemethyl)-benzenesulfonamide] | 204 °C
18 | CN(C)S(=O)(=O)c1cccc(C=C2c3ccccc3CCc3ccccc32)c1 [Example 25, 3-(10,11-Dihydro-dibenzo[a,d]cyclohepten-5-ylidenemethyl)-N,N-dimethyl-benzenesulfonamide] | 167.3 °C
19 | Brc1cccc(C=C2c3ccccc3CCc3ccccc32)c1 [Example 28, 5-(3-Bromo-benzylidene)-10,11-dihydro-5H-dibenzo-[a,d]cycloheptene] | 104.7 °C
20 | Brc1ccccc1C=C1c2ccccc2CCc2ccccc21 [Example 29, 5-(2-Bromo-benzylidene)-10,11-dihydro-5H-dibenzo-[a,d]cycloheptene] | 122.7 °C
21 | COc1ccc(C=C2c3ccccc3CCc3ccccc32)cc1 [Example 33, 5-(4-Methoxy-benzylidene)-10,11-dihydro-5H-dibenzo-[a,d]cycloheptene] | 116.8 °C

Results, then the molecule that gave them:

Row | melting point | SMILES
22 | 140.7 °C | COc1ccc(C=C2c3ccccc3CCc3ccccc32)cc1Br [Example 34, 5-(3-Bromo-4-methoxy-benzylidene)-10,11-dihydro-5H-dibenzo[a,d]cycloheptene]
23 | 102.8 °C | COc1ccc(C=C2c3ccccc3CCc3ccccc32)cc1OC [Example 36, 5-(3,4-Dimethoxy-benzylidene)-10,11-dihydro-5H-dibenzo[a,d]cycloheptene]
24 | 158.8 °C | Nc1cc(C=C2c3ccccc3CCc3ccccc32)ccc1O [Example 63, 2-Amino-4-(10,11-dihydro-dibenzo[a,d]cyclohepten-5-ylidenemethyl)-phenol]
25 | 81.1 °C | FC(F)Oc1ccccc1C=C1c2ccccc2CCc2ccccc21 [Example 66, 5-(2-Difluoromethoxy-benzylidene)-10,11-dihydro-5H-dibenzo[a,d]cycloheptene]
26 | 65.8 °C | FC(F)Oc1ccc(C=C2c3ccccc3CCc3ccccc32)cc1 [Example 67, 5-(4-Difluoromethoxy-benzylidene)-10,11-dihydro-5H-dibenzo[a,d]cycloheptene]
27 | 62.7 °C | COc1ccc(C=C2c3ccccc3CCc3ccccc32)cc1N [Example 89, 5-(10,11-Dihydro-dibenzo[a,d]cyclohepten-5-ylidenemethyl)-2-methoxy-phenylamine]
28 | 192.1 °C | COc1ccc(C=C2c3ccccc3CCc3ccccc32)cc1NS(C)(=O)=O [Example 97, N-[5-(10,11-Dihydro-dibenzo[a,d]cyclohepten-5-ylidenemethyl)-2-methoxy-phenyl]-methanesulfonamide]
29 | 189.7 °C | CC(=O)Nc1ccccc1C=C1c2ccccc2CCc2ccccc21 [Example 115, N-[2-(10,11-Dihydro-dibenzo[a,d]cyclohepten-5-ylidenemethyl)-phenyl]-acetamide]

biological target: T2, glucocorticoid receptor (Homo sapiens, UniProt P04150); experiment: Glucocorticoid Receptor Binding Assay ([3H]-dexamethasone, A549 cell extract); settings: [3H]-dexamethasone binding, read-out: GR Ki
T2 construct: containing 50-200 ug of A549 cell extract and 1.86 nM [^3H]-dexamethasone; host or cells: A549 human lung epithelial cells (sonicated cell extract)
T2 sequence (P04150 1-777): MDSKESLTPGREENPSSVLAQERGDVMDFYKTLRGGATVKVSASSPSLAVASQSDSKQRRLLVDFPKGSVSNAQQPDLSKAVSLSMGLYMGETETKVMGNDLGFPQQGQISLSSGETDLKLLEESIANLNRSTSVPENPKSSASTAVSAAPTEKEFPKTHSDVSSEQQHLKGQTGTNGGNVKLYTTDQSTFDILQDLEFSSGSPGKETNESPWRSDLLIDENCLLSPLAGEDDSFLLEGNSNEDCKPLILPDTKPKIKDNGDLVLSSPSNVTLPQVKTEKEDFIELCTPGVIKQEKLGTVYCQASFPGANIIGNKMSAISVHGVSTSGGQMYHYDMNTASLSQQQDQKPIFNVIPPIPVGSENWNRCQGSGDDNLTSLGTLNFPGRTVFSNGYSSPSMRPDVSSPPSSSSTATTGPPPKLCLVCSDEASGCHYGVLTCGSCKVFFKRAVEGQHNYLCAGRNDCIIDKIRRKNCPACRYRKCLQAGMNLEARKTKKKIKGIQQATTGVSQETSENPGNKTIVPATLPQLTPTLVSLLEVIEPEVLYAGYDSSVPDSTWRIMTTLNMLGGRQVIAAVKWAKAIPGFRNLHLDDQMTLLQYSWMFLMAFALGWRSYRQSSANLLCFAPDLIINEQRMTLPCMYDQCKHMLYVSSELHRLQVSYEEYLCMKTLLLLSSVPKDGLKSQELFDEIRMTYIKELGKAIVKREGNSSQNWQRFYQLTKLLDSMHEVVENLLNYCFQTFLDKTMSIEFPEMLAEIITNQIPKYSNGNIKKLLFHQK
How it was run: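 A549 cell extract (50–200 ug) incubated with 1.86 nM [3H]-dexamethasone and test compound for 16 h at 4 °C in Tris-HCl pH 7.2 buffer with glycerol and molybdate. Unbound radioligand removed by dextran-coated charcoal, then supernatant bound counts measured by scintillation.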

Row | Ki | SMILES
30 | < 500 nM | C/C(=C1/c2ccccc2COc2cc(F)ccc21)c1ccc2[nH]c(=O)[nH]c2c1 [Example 838]
31 | < 500 nM | C/C(=C1\c2ccccc2COc2cc(F)ccc21)c1ccc2[nH]c(=O)[nH]c2c1 [Example 839]
32 | < 500 nM | COc1ccc2c(c1)CSc1ccccc1C2=C(C)c1cccc(NS(C)(=O)=O)c1 [Example 840]
33 | < 500 nM | COc1ccc2c(c1)CSc1ccccc1/C2=C(/C)c1cccc(NS(C)(=O)=O)c1 [Example 841]
34 | < 500 nM | COc1ccc2c(c1)CSc1ccccc1/C2=C(\C)c1cccc(NS(C)(=O)=O)c1 [Example 842]
